Measured values: patent publication US6686475B2, “Compounds” (Beecham Group p.l.c., priority 1988, dated 2004)

Tests used:
[1] = system: spontaneously hypertensive rats; experiment: Anti-Hypertensive Activity, blood pressure in spontaneously hypertensive rats; format: in vivo
Experimental: Anti-Hypertensive Activity
Eight month old female, spontaneously hypertensive rats were given test compound once each day for 15 days. Prior to the experiment and on days 8 and 15, the rats were fasted overnight from 5.00 pm and blood pressure was recorded the following morning, immediately prior to dosing and again 2 h later. Food was returned after the 2 h blood pressure reading.
The results below were obtained using the compound of Example 3 as the test compound.

[2] = system: C57bl/6 obese (ob/ob) mice; experiment: Obese Mice, Oral Glucose Tolerance Test; format: in vivo; conditions: 8 days on diet, oral glucose load 3 g/kg, vs control groups; for inhibition in vivo at 100 µmol/kg: level in diet 100 μmol kg^-1 of diet; for inhibition in vivo at 300 µmol/kg: level in diet 300 μmol kg^-1 of diet; for inhibition in vivo at 30 µmol/kg: level in diet 30 μmol kg^-1 of diet
Experimental: Obese Mice, Oral Glucose Tolerance Test
C57bl/6 obese (ob/ob) mice were fed on powdered oxoid diet. After at least one week, the mice continued on a powdered oxoid diet or were fed powdered oxoid diet containing the test compound. After 8 days on the supplemented diet all of the mice were fasted for 5 hours prior to receiving an oral load of glucose (3 g/kg). Blood samples for glucose analysis were taken 0, 45, 90 and 135 minutes after glucose administration and the results appear below as the percentage reduction in area under the blood glucose curve where test compound treated groups are compared with the control groups. 7 mice were used for each treatment.

[3] = Mus musculus, 192 h, read-out: % REDUCTION IN AREA UNDER BLOOD GLUCOSE CURVE

melting point	Molecule	inhibition in vivo at 100 µmol/kg [2, 3]	also measured
	5-(4-[2-(N-Methyl-N-(2-benzoxazolyl)amino)ethoxy]benzyl)-2,4-thiazolidinedione hemihydrate [Example 3]		Blood pressure ([1]; 10 μmole/kg once each day, Day 0 (prior to the experiment), 0 hours): 210 ± 13 mm Hg; Blood pressure ([1]; 10 μmole/kg once each day, Day 8, 0 hours (immediately prior to dosing)): 191 ± 6 mm Hg; Blood pressure ([1]; 10 μmole/kg once each day, Day 8, 2 hours after dosing): 185 ± 12 mm Hg; Blood pressure ([1]; 10 μmole/kg once each day, Day 15, 0 hours (immediately prior to dosing)): 198 ± 17 mm Hg; Blood pressure ([1]; 10 μmole/kg once each day, Day 15, 2 hours after dosing): 185 ± 5 mm Hg; Blood pressure ([1]; 30 μmole/kg once each day, Day 0 (prior to the experiment), 0 hours): 210 ± 13 mm Hg; Blood pressure ([1]; 30 μmole/kg once each day, Day 8, 0 hours (immediately prior to dosing)): 181 ± 11 mm Hg; Blood pressure ([1]; 30 μmole/kg once each day, Day 8, 2 hours after dosing): 174 ± 15 mm Hg; Blood pressure ([1]; 30 μmole/kg once each day, Day 15, 0 hours (immediately prior to dosing)): 178 ± 18 mm Hg; Blood pressure ([1]; 30 μmole/kg once each day, Day 15, 2 hours after dosing): 170 ± 13 mm Hg; % REDUCTION IN AREA UNDER BLOOD GLUCOSE CURVE ([2]; level in diet 10 μmol kg^-1 of diet): 39%
	CN(CCOc1ccc(CC2SC(=O)NC2=O)cc1)c1nc2ccccc2s1 (centres unmarked) [Example 1, 5-(4-[2-(N-Methyl-N-(2-benzothiazolyl)amino)ethoxy]benzyl)-2,4-thiazolidinedione]	51%	
	CN(CCOc1ccc(/C=C2\SC(=O)NC2=O)cc1)c1nc2ccccc2s1 [Example 2, 5-(4-[2-(N-Methyl-N-(2-benzothiazolyl)amino)ethoxy]benzylidene)-2,4-thiazolidinedione]		inhibition in vivo at 300 µmol/kg [2, 3]: 30%
	CN(CCOc1ccc(/C=C2\SC(=O)NC2=O)cc1)c1nc2ccccc2o1 [Example 4, 5-(4-[2-(N-Methyl-N-(2-benzoxazolyl)amino)ethoxy]benzylidene)-2,4-thiazolidinedione]		inhibition in vivo at 300 µmol/kg [2, 3]: 30%
	CN(CCOc1ccc(CC2SC(=O)NC2=O)cc1)c1ncccn1 (centres unmarked) [Example 5, 5-(4-[2-(N-Methyl-N-(2-pyrimidinyl)amino)ethoxy]benzyl)-2,4-thiazolidinedione]	40%	
	Cc1nc(N(C)CCOc2ccc(CC3SC(=O)NC3=O)cc2)sc1C (centres unmarked) [Example 7]		inhibition in vivo at 50 µmol/kg ([2]; Mus musculus, 192 h, level in diet 50 μmol kg^-1 of diet, read-out: % REDUCTION IN AREA UNDER BLOOD GLUCOSE CURVE): 47%
175 °C	Cc1nc(N(C)CCOc2ccc(/C=C3\SC(=O)NC3=O)cc2)sc1C [Example 8, 5-(4-[2-(N-Methyl-N-[2-(4,5-dimethylthiazolyl)]amino)ethoxy]benzylidene)-2,4-thiazolidinedione]		
186 °C	CN(CCOc1ccc(CC2SC(=O)NC2=O)cc1)c1nccs1 (centres unmarked) [Example 9, 5-(4-[2-(N-Methyl-N-(2-thiazolyl)amino)ethoxy]benzyl)-2,4-thiazolidinedione]	58%	
62 to 65 °C	CN(CCOc1ccc(CC2SC(=O)NC2=O)cc1)c1nc(-c2ccccc2)cs1 (centres unmarked) [Example 11, 5-[4-(2-(N-Methyl-N-(2-(4-phenylthiazolyl))amino)ethoxy)benzyl]-2,4-thiazolidinedione]	34%	
134 °C	CN(CCOc1ccc(/C=C2\SC(=O)NC2=O)cc1)c1nc(-c2ccccc2)cs1 [Example 12, 5-(4-[2-(N-Methyl-N-(2-(4-phenylthiazolyl))amino)ethoxy]benzylidene)-2,4-thiazolidinedione]		
60 to 62 °C	Cc1sc(N(C)CCOc2ccc(CC3SC(=O)NC3=O)cc2)nc1-c1ccccc1 (centres unmarked) [Example 13, 5-(4-[2-(N-Methyl-N-[2-(4-phenyl-5-methylthiazolyl)]amino)ethoxy]benzyl)-2,4-thiazolidinedione]	37%	
174 °C	Cc1nc(N(C)CCOc2ccc(CC3SC(=O)NC3=O)cc2)sc1-c1ccccc1 (centres unmarked) [Example 15, 5-(4-[2-(N-Methyl-N-[2-(4-methyl-5-phenylthiazolyl)]amino)ethoxy]benzyl)-2,4-thiazolidinedione]	39%	
	Cc1csc(N(C)CCOc2ccc(CC3SC(=O)NC3=O)cc2)n1 (centres unmarked) [Example 17, 5-(4-[2-(N-Methyl-N-[2-(4-methylthiazolyl)]amino)ethoxy]benzyl)-2,4-thiazolidinedione]	34%	
200 °C	CN(CCOc1ccc(CC2SC(=O)NC2=O)cc1)c1ncc(-c2ccccc2)o1 (centres unmarked) [Example 19, 5-[4-(2-(N-Methyl-N-[2-(5-phenyloxazolyl)]amino)ethoxy)benzyl]-2,4-thiazolidinedione]		inhibition in vivo at 30 µmol/kg [2, 3]: 22%
191 °C	CN(CCOc1ccc(/C=C2\SC(=O)NC2=O)cc1)c1ncc(-c2ccccc2)o1 [Example 20, 5-(4-[2-(N-Methyl-N-[2-(5-phenyloxazolyl)]amino)ethoxy]benzylidene)-2,4-thiazolidinedione]		
	Cc1nc(N(C)CCOc2ccc(CC3SC(=O)NC3=O)cc2)oc1C (centres unmarked) [Example 21, 5-(4-[2-(N-Methyl-N-[2-(4,5-dimethyloxazolyl)]amino)ethoxy]benzyl)-2,4-thiazolidinedione]		inhibition in vivo at 30 µmol/kg [2, 3]: 33%
234 °C	O=C1NC(=O)/C(=C/c2ccc(OCCNc3ncccn3)cc2)S1 [Example 24, 5-[4-(2-(2-Pyrimidinylamino)ethoxy)benzylidene]-2,4-thiazolidinedione]		inhibition in vivo at 30 µmol/kg [2, 3]: 15%
	CC(=O)N(CCOc1ccc(CC2SC(=O)NC2=O)cc1)c1ncccn1 (centres unmarked) [Example 25, 5-(4-[2-(N-Acetyl-N-(2-pyrimidinyl)amino)ethoxy]benzyl)-2,4-thiazolidinedione]		inhibition in vivo at 30 µmol/kg [2, 3]: 19%
	O=C1NC(=O)C(Cc2ccc(OCCN(Cc3ccccc3)c3nc4ccccc4s3)cc2)S1 (centres unmarked) [Example 27, 5-(4-(2-(N-(2-Benzothiazolyl)-N-benzylamino)ethoxy)benzyl)-2,4-thiazolidinedione]		inhibition in vivo at 300 µmol/kg [2, 3]: 56%
202 to 204 °C	CN(CCCOc1ccc(/C=C2\SC(=O)NC2=O)cc1)c1nc2ccccc2o1 [Example 29, 5-(4-[3-(N-Methyl-N-(2-benzoxazolyl)amino)propoxy]benzylidene)-2,4-thiazolidinedione]		inhibition in vivo at 300 µmol/kg [2, 3]: 32%
177 to 179 °C	CN(CCOc1ccc(/C=C2\SC(=O)NC2=O)cc1)c1ccccn1 [Example 31, 5-(4-[2-(N-Methyl-N-(2-pyridyl)amino)ethoxy]benzylidene)-2,4-thiazolidinedione]		
202 to 203 °C	O=C1NC(=O)C(Cc2ccc(OCCNc3nc4ccccc4o3)cc2)S1 (centres unmarked) [Example 35, 5-(4-[2-(N-(2-Benzoxazolyl)amino)ethoxy]benzyl)-2,4-thiazolidinedione]	44%	
	CC(C)N(CCOc1ccc(CC2SC(=O)NC2=O)cc1)c1nc2ccccc2o1 (centres unmarked) [Example 36, 5-(4-[2-(N-Isopropyl-N-(2-benzoxazolyl)amino)ethoxy]benzyl)-2,4-thiazolidinedione]	20%	

Molecule	melting point	inhibition in vivo at 100 µmol/kg [2, 3]	also measured
CN(CCCCOc1ccc(/C=C2\SC(=O)NC2=O)cc1)c1nc2ccccc2o1 [Example 32, 5-(4-[4-(N-Methyl-N-(2-benzoxazolyl)amino)butoxy]benzylidene)-2 4-thiazolidinedione]	168 °C		
CN(CCCCOc1ccc(CC2SC(=O)NC2=O)cc1)c1nc2ccccc2o1 (centres unmarked) [Example 33, 5-(4-[4-(N-Methyl-N-(2-benzoxazolyl)amino)butoxy]benzyl)-2,4-thiazolidinedione]	112 °C		inhibition in vivo at 300 µmol/kg [2, 3]: 25%
